Measured values as given in PubChem BioAssay AID248 (DTP/NCI, 2004).
Where “and” joins values, the source holds several entries; their conditions need not be identical. Identical values can stand only once. Toxic doses and inconclusive results are not listed. No stated cut-off is given here; in the data, active means T/C of 150% or more; inactive means T/C below 125%.

Tested on: L1210 leukemia ip in BDF1 mice, survival T/C
Experiment: NCI In Vivo Anticancer Drug Screen. Data for tumor model L1210 Leukemia (intraperitoneal) in B6D2F1 (BDF1) mice
Conditions: endpoint: mean survival time, higher = longer survival
How it was run: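 Survival endpoint. Drug-treated group vs vehicle group, expressed as T divided by C. Tumor passaged by transplantation.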

[1] = dose: 100.0 mg/kg/injection, schedule: Q01DX001 (ip), vehicle: Klucel (hydroxypropylcellulose) (HPC)
[2] = dose: 200.0 mg/kg/injection, schedule: Q01DX001 (ip), vehicle: Klucel (hydroxypropylcellulose) (HPC)
[3] = dose: 400.0 mg/kg/injection, schedule: Q01DX001 (ip), vehicle: Klucel (hydroxypropylcellulose) (HPC)
[4] = dose: 100.0 mg/kg/injection, schedule: Q04DX002 (ip), vehicle: Klucel (hydroxypropylcellulose) (HPC)
[5] = dose: 200.0 mg/kg/injection, schedule: Q04DX002 (ip), vehicle: Klucel (hydroxypropylcellulose) (HPC)
[6] = dose: 400.0 mg/kg/injection, schedule: Q04DX002 (ip), vehicle: Klucel (hydroxypropylcellulose) (HPC)
[7] = dose: 100.0 mg/kg/injection, schedule: Q01DX009 (ip), vehicle: saline with Tween-80
[8] = dose: 200.0 mg/kg/injection, schedule: Q01DX009 (ip), vehicle: saline with Tween-80
[9] = dose: 100.0 mg/kg/injection, schedule: Q01DX001 (ip), vehicle: carboxymethylcellulose (CMC)
[10] = dose: 200.0 mg/kg/injection, schedule: Q01DX001 (ip), vehicle: carboxymethylcellulose (CMC)
[11] = dose: 400.0 mg/kg/injection, schedule: Q01DX001 (ip), vehicle: carboxymethylcellulose (CMC)
[12] = dose: 100.0 mg/kg/injection, schedule: Q04DX003 (ip), vehicle: saline with Tween-80
[13] = dose: 200.0 mg/kg/injection, schedule: Q04DX003 (ip), vehicle: saline with Tween-80
[14] = dose: 400.0 mg/kg/injection, schedule: Q04DX003 (ip), vehicle: saline with Tween-80
[15] = dose: 100.0 mg/kg/injection, schedule: Q04DX003 (ip), vehicle: Klucel (hydroxypropylcellulose) (HPC)
[16] = dose: 200.0 mg/kg/injection, schedule: Q04DX003 (ip), vehicle: Klucel (hydroxypropylcellulose) (HPC)
[17] = dose: 400.0 mg/kg/injection, schedule: Q04DX003 (ip), vehicle: Klucel (hydroxypropylcellulose) (HPC)
[18] = dose: 100.0 mg/kg/injection, schedule: Q01DX009 (ip), vehicle: Klucel (hydroxypropylcellulose) (HPC)
[19] = dose: 200.0 mg/kg/injection, schedule: Q01DX009 (ip), vehicle: Klucel (hydroxypropylcellulose) (HPC)
[20] = dose: 100.0 mg/kg/injection, schedule: Q01DX001 (ip), vehicle: saline
[21] = dose: 200.0 mg/kg/injection, schedule: Q01DX001 (ip), vehicle: saline
[22] = dose: 400.0 mg/kg/injection, schedule: Q01DX001 (ip), vehicle: saline
[23] = dose: 50.0 mg/kg/injection, schedule: Q01DX001 (ip), vehicle: saline
[24] = dose: 100.0 mg/kg/injection, schedule: Q04DX002 (ip), vehicle: saline
[25] = dose: 200.0 mg/kg/injection, schedule: Q04DX002 (ip), vehicle: saline

Measured: T/C

NC(=S)N/N=C/c1nccn1Cc1ccccc1
inactive: [1] 104 % of control | dose: 100.0 mg/kg/injection, schedule: Q01DX001 (ip), vehicle: other 101 % of control | [2] 101 % of control | dose: 200.0 mg/kg/injection, schedule: Q01DX001 (ip), vehicle: other 96 % of control | [3] 104 % of control

O=C(Nc1ccccc1)Oc1c(Cl)c(Cl)c(Cl)c(Cl)c1Cl
inactive: [4] 98 % of control | [5] 104 % of control

NC(=S)c1cccc(S(=O)(=O)Nc2ccccc2)c1
inactive: [1] 103 % of control | [2] 105 % of control | [3] 101 % of control

O=C(COc1ccc(Cl)cc1)Oc1c(Cl)c(Cl)c(Cl)c(Cl)c1Cl
inactive: [4] 97 % of control | [5] 115 % of control | [6] 104 % of control

CN(Cc1ccccc1)C(=O)C(Cl)Cl
inactive: [4] 103 % of control | [5] 117 % of control | [6] 109 % of control

O=S(=O)(O)Cc1ccccc1O
inactive: [7] 96 % of control | [8] 102 % of control | dose: 400.0 mg/kg/injection, schedule: Q01DX009 (ip), vehicle: saline with Tween-80 93 % of control

Nc1nc(-c2ccccc2)c2ccccc2n1
inactive: [9] 101 % of control | [10] 93 % of control | [11] 104 % of control

COc1ccc(C#N)cc1OC
inactive: dose: 6.25 mg/kg/injection, schedule: Q04DX002 (ip), vehicle: Klucel (hydroxypropylcellulose) (HPC) 93 % of control | dose: 12.5 mg/kg/injection, schedule: Q04DX002 (ip), vehicle: Klucel (hydroxypropylcellulose) (HPC) 96 % of control | dose: 25.0 mg/kg/injection, schedule: Q04DX002 (ip), vehicle: Klucel (hydroxypropylcellulose) (HPC) 93 % of control and 96 % of control | [4] 100 % of control | [5] 92 % of control

CCCCN=Cc1ccccc1
inactive: [7] 114 % of control | [12] 96 % of control | [8] 90 % of control | [13] 87 % of control | [14] 103 % of control

CCc1nc2ccc(N=Cc3ccc(N(CCCl)CCCl)cc3C)cc2[nH]1
inactive: [15] 101 % of control | [16] 98 % of control | [17] 101 % of control

CCOC(=O)c1ccc(NC(=O)Nc2cccc(C(F)(F)F)c2)cc1
inactive: [18] 92 % of control | [19] 90 % of control

COC(=O)c1ccc(C)nc1OC/C=C(\C)CCC=C(C)C
inactive: [20] 104 % of control | dose: 100.0 mg/kg/injection, schedule: Q01DX009 (ip), vehicle: saline 110 % of control | [21] 99 % of control | dose: 200.0 mg/kg/injection, schedule: Q01DX009 (ip), vehicle: saline 102 % of control | [22] 90 % of control | dose: 400.0 mg/kg/injection, schedule: Q01DX009 (ip), vehicle: saline 106 % of control

S=C1NC(c2ccccc2)NC(c2ccccc2)S1 (centres undefined)
inactive: dose: 12.0 mg/kg/injection, schedule: Q01DX009 (ip), vehicle: saline 93 % of control | dose: 25.0 mg/kg/injection, schedule: Q01DX009 (ip), vehicle: saline 90 % of control | dose: 50.0 mg/kg/injection, schedule: Q01DX009 (ip), vehicle: saline 90 % of control

COC1OC(COC(C)=O)C(OC(C)=O)C(OC(C)=O)[CH]1[Hg][O]C(C)=O (centres undefined)
inactive: dose: 6.25 mg/kg/injection, schedule: Q04DX003 (ip), vehicle: saline 96 % of control | dose: 12.5 mg/kg/injection, schedule: Q04DX003 (ip), vehicle: saline 98 % of control | dose: 25.0 mg/kg/injection, schedule: Q04DX003 (ip), vehicle: saline 92 % of control

CN(C)Cc1ccc2ccccc2c1C(O)(c1ccccc1)c1ccccc1
inactive: [9] 96 % of control | [10] 98 % of control | [11] 96 % of control

O=Nc1ccc(/C=C/C(=O)O)cc1
inactive: [23] 102 % of control | [20] 105 % of control | [21] 100 % of control | [22] 113 % of control

N#Cc1cccc[n+]1Cc1ccc([N+](=O)[O-])cc1
inactive: [12] 97 % of control

CSc1nc(N(C)C)c2ncn(C3OC(C[N+](=O)[O-])C(OC(C)=O)C(OC(C)=O)C3OC(C)=O)c2n1 (centres undefined)
inactive: dose: 50.0 mg/kg/injection, schedule: Q04DX002 (ip), vehicle: saline 89 % of control | [24] 112 % of control | [25] 94 % of control

CC1=Nc2ccccc2NC(C)(C)C1
inactive: [24] 102 % of control | [15] 100 % of control | [25] 102 % of control | [16] 98 % of control | [17] 98 % of control

S=C1SCC(c2ccccc2)S1 (centres undefined)
inactive: [12] 92 % of control | [13] 92 % of control | [14] 89 % of control

C=CCOCC(C)OC(=O)C(C)C (centres undefined)
inactive: [20] 107 % of control | [21] 94 % of control | [22] 90 % of control

CCc1cc(C)cc(OC(=O)Nc2cc(Cl)ccc2C)c1
inactive: [18] 95 % of control | [19] 90 % of control | dose: 400.0 mg/kg/injection, schedule: Q01DX009 (ip), vehicle: Klucel (hydroxypropylcellulose) (HPC) 100 % of control

C(=N\N(CCCCN(/N=C/c1ccccc1)c1ccccc1)c1ccccc1)/c1ccccc1
inactive: dose: 12.5 mg/kg/injection, schedule: Q01DX009 (ip), vehicle: gum acacia 111 % of control | dose: 25.0 mg/kg/injection, schedule: Q01DX009 (ip), vehicle: gum acacia 96 % of control | [23] 96 % of control | dose: 50.0 mg/kg/injection, schedule: Q01DX009 (ip), vehicle: gum acacia 92 % of control | [20] 104 % of control | dose: 100.0 mg/kg/injection, schedule: Q04DX003 (ip), vehicle: gum acacia 94 % of control | [21] 91 % of control | dose: 200.0 mg/kg/injection, schedule: Q01DX009 (ip), vehicle: gum acacia 87 % of control | dose: 200.0 mg/kg/injection, schedule: Q04DX003 (ip), vehicle: gum acacia 89 % of control | [22] 98 % of control | dose: 400.0 mg/kg/injection, schedule: Q01DX009 (ip), vehicle: gum acacia 86 % of control | dose: 400.0 mg/kg/injection, schedule: Q04DX003 (ip), vehicle: gum acacia 91 % of control

CCCN(CCC)S(=O)(=O)CCC
inactive: dose: 50.0 mg/kg/injection, schedule: Q04DX002 (ip), vehicle: saline with Tween-80 97 % of control | dose: 100.0 mg/kg/injection, schedule: Q04DX002 (ip), vehicle: saline with Tween-80 97 % of control | dose: 200.0 mg/kg/injection, schedule: Q04DX002 (ip), vehicle: saline with Tween-80 101 % of control
